# From patent US20050101595A1, “N-containing cycloalkyl-substituted amino-thiazole derivatives and pharmaceutical compositions for inhibiting cell proliferation and methods for their use” (PFIZER INC., priority 2003, published 2005)
# Tested on: HCT-116 cell line
# Assay: Inhibition of cell growth, tetrazolium salt (MTT) assay
# Assay type: cell-based
# Conditions: HCT116 cells; compound at 250 nM
# Protocol: Inhibition of Cell Growth: Assessment of Cytotoxicity:
# Inhibition of cell growth was measured using the tetrazolium salt assay, which is based on the ability of viable cells to reduce 3-(4,5-dimethylthiazol-2-yl)-2,5-[2H]-diphenyltetrazolium bromide (MTT) to formazan (Mossman, Journal of Immunological Methods, vol. 65 (1983), pp. 55-58). The water-insoluble purple formazan product was then detected spectrophotometrically. The HCT-116 cell line was used as a representative cancer cell line and grown in 96-well plates. Cells were plated in McCoy's 5A Medium at a volume of 135 μl/well. Plates were incubated for four hours before addition of inhibitor compounds. Different concentrations of inhibitor compounds were added in 0.5% (v/v) dimethylsulfoxide (15 μLuwell), and cells were incubated at 37° C. (5% CO2) for three to five days. At the end of the incubation, MTT was added to a final concentration of 0.2 mg/mL, and cells were incubated for 4 hours more at 37° C. After centrifugation of the plates and removal of medium, the absorbance of the formazan (solubilized in dimethylsulfoxide) was measured at 540 nm. […] All results were compared to control cells treated only with 0.5% (v/v) dimethylsulfoxide.
row,Structure (SMILES),% Inhibition HCT116 @ 250 nM [%]
1,CC1CCCC(NCCS(=O)(=O)N2CCC(Nc3nc(N)c(C(=O)c4c(F)cccc4F)s3)CC2)C1 (mixture of isomers) [Example S57],73

# Same assay, conditions: HCT116 cells; compound at 250 nM; 0.25 µM
row,Structure (SMILES),% Inhibition HCT116 @ 250 nM [%]
1,Nc1nc(NC2CCN(S(=O)(=O)CCNCc3cccnc3)CC2)sc1C(=O)c1c(F)cccc1F [Example S56],73
2,N#CCNCCS(=O)(=O)N1CCC(Nc2nc(N)c(C(=O)c3c(F)cccc3F)s2)CC1 [Example S160],30
3,CC(=O)NCCNCCS(=O)(=O)N1CCC(Nc2nc(N)c(C(=O)c3c(F)cccc3F)s2)CC1 [Example S165],25

# Same assay, conditions: Homo sapiens, HCT-116, 120 h, first HCT-116 column (c4); MTT, three to five days; read-out: HCT-116 IC50
row,IC50 [µM],Structure (SMILES)
1,0.2,"Nc1nc(NC2CCN(S(=O)(=O)CCNCc3c(F)cccc3F)CC2)sc1C(=O)c1c(F)cccc1F [Example K50, (4-Amino-2-{1-[2-(2,6-difluoro-benzylamino)-ethanesulfonyl]-piperidin-4-ylamino}-thiazol-5-yl)-(2,6-difluoro-phenyl)-methanone]"
2,0.11,"Nc1nc(NC2CCN(S(=O)(=O)CCNCc3cccc(Cl)c3)CC2)sc1C(=O)c1c(F)cccc1F [Example K52, (4-Amino-2-{1-[2-(3-chloro-benzylamino)-ethanesulfonyl]-piperidin-4-ylamino}-thiazol-5-yl)-(2,6-difluoro-phenyl)-methanone]"
3,0.23,"Nc1nc(NC2CCN(S(=O)(=O)CCN(Cc3ccccc3)CC3CC3)CC2)sc1C(=O)c1c(F)cccc1F [Example K53, (4-Amino-2-{1-[2-(benzyl-cyclopropylmethyl-amino)-ethanesulfonyl]-piperidin-4-ylamino}-thiazol-5-yl)-(2,6-difluoro-phenyl)-methanone]"

# Same assay, conditions: Homo sapiens, HCT-116, 120 h, second HCT-116 column (c5); MTT, three to five days; read-out: HCT-116 IC50
row,IC50 [µM],Structure (SMILES)
1,0.5,"Nc1nc(NC2CCN(S(=O)(=O)CCNCc3c(F)cccc3F)CC2)sc1C(=O)c1c(F)cccc1F [Example K50, (4-Amino-2-{1-[2-(2,6-difluoro-benzylamino)-ethanesulfonyl]-piperidin-4-ylamino}-thiazol-5-yl)-(2,6-difluoro-phenyl)-methanone]"
2,0.25,"Nc1nc(NC2CCN(S(=O)(=O)CCNCc3cccc(Cl)c3)CC2)sc1C(=O)c1c(F)cccc1F [Example K52, (4-Amino-2-{1-[2-(3-chloro-benzylamino)-ethanesulfonyl]-piperidin-4-ylamino}-thiazol-5-yl)-(2,6-difluoro-phenyl)-methanone]"
3,0.56,"Nc1nc(NC2CCN(S(=O)(=O)CCN(Cc3ccccc3)CC3CC3)CC2)sc1C(=O)c1c(F)cccc1F [Example K53, (4-Amino-2-{1-[2-(benzyl-cyclopropylmethyl-amino)-ethanesulfonyl]-piperidin-4-ylamino}-thiazol-5-yl)-(2,6-difluoro-phenyl)-methanone]"

# Same assay, conditions: Homo sapiens, HCT-116, HCT116 cells; compound at 250 nM; read-out: % Inhibition HCT116 @ 250 nM
row,Structure (SMILES),inhibition at 0.25 µM [%]
1,CC(C)OCCCNCCS(=O)(=O)N1CCC(Nc2nc(N)c(C(=O)c3c(F)cccc3F)s2)CC1 [Example S123],15
2,Nc1nc(NC2CCN(S(=O)(=O)CCN3CCCC3)CC2)sc1C(=O)c1c(F)cccc1F [Example S21],35
3,CC(C)CN(C)CCS(=O)(=O)N1CCC(Nc2nc(N)c(C(=O)c3c(F)cccc3F)s2)CC1 [Example S38],55
4,Nc1nc(NC2CCN(S(=O)(=O)CCNCC3CCCO3)CC2)sc1C(=O)c1c(F)cccc1F (stereo not shown) [Example S77],9
5,CN1CCC(NCCS(=O)(=O)N2CCC(Nc3nc(N)c(C(=O)c4c(F)cccc4F)s3)CC2)C1=O (stereo not shown) [Example S157],16
6,Nc1nc(NC2CCN(S(=O)(=O)CCN3CCC(CCO)CC3)CC2)sc1C(=O)c1c(F)cccc1F [Example S25],10
7,C=CCNCCS(=O)(=O)N1CCC(Nc2nc(N)c(C(=O)c3c(F)cccc3F)s2)CC1 [Example S120],17
8,CCCN(CCS(=O)(=O)N1CCC(Nc2nc(N)c(C(=O)c3c(F)cccc3F)s2)CC1)CC1CC1 [Example S1],36
9,Nc1nc(NC2CCN(S(=O)(=O)CCNC3Cc4ccccc4C3)CC2)sc1C(=O)c1c(F)cccc1F [Example S161],45
10,CC(C)(C)CCNCCS(=O)(=O)N1CCC(Nc2nc(N)c(C(=O)c3c(F)cccc3F)s2)CC1 [Example S121],20
11,CCC(CO)NCCS(=O)(=O)N1CCC(Nc2nc(N)c(C(=O)c3c(F)cccc3F)s2)CC1 (stereo not shown) [Example S92],8
12,Nc1nc(NC2CCN(S(=O)(=O)CCNCCCN3CCCC3=O)CC2)sc1C(=O)c1c(F)cccc1F [Example S71],23
13,Nc1nc(NC2CCN(S(=O)(=O)CCN[C@@H](CO)c3ccccc3)CC2)sc1C(=O)c1c(F)cccc1F [Example S79],14
14,Nc1nc(NC2CCN(S(=O)(=O)CCNCc3ccncc3)CC2)sc1C(=O)c1c(F)cccc1F [Example S83],6
15,Cc1ccccc1CNCCS(=O)(=O)N1CCC(Nc2nc(N)c(C(=O)c3c(F)cccc3F)s2)CC1 [Example S98],49
16,CN(CCS(=O)(=O)N1CCC(Nc2nc(N)c(C(=O)c3c(F)cccc3F)s2)CC1)Cc1ccccc1 [Example S28],80
17,CC(C)c1ccc(CNCCS(=O)(=O)N2CCC(Nc3nc(N)c(C(=O)c4c(F)cccc4F)s3)CC2)cc1 [Example S138],22
18,CCCC(C)(C)NCCS(=O)(=O)N1CCC(Nc2nc(N)c(C(=O)c3c(F)cccc3F)s2)CC1 [Example S145],96
19,Nc1nc(NC2CCN(S(=O)(=O)CCNCc3ccccc3)CC2)sc1C(=O)c1c(F)cccc1F [Example S94],64
20,Nc1nc(NC2CCN(S(=O)(=O)CCN[C@@H]3CONC3=O)CC2)sc1C(=O)c1c(F)cccc1F [Example S76],11
21,Nc1nc(NC2CCN(S(=O)(=O)CCN3CCCCCC3)CC2)sc1C(=O)c1c(F)cccc1F [Example S7],22
22,CN(CC#N)CCS(=O)(=O)N1CCC(Nc2nc(N)c(C(=O)c3c(F)cccc3F)s2)CC1 [Example S53],17
23,CC(C)(CO)NCCS(=O)(=O)N1CCC(Nc2nc(N)c(C(=O)c3c(F)cccc3F)s2)CC1 [Example S80],13
24,CCN1CCCC1CNCCS(=O)(=O)N1CCC(Nc2nc(N)c(C(=O)c3c(F)cccc3F)s2)CC1 (stereo not shown) [Example S70],23
25,CCCC(C)NCCS(=O)(=O)N1CCC(Nc2nc(N)c(C(=O)c3c(F)cccc3F)s2)CC1 (stereo not shown) [Example S93],33
26,Nc1nc(NC2CCN(S(=O)(=O)CCN3CCCC(CO)C3)CC2)sc1C(=O)c1c(F)cccc1F (stereo not shown) [Example S23],18

row,Structure (SMILES),inhibition at 0.25 µM [%]
1,Nc1nc(NC2CCN(S(=O)(=O)CCNCc3ccc(Cl)cc3)CC2)sc1C(=O)c1c(F)cccc1F [Example S103],25
2,Nc1nc(NC2CCN(S(=O)(=O)CCN3CCC(O)C3)CC2)sc1C(=O)c1c(F)cccc1F (stereo not shown) [Example S18],14
3,C#CCNCCS(=O)(=O)N1CCC(Nc2nc(N)c(C(=O)c3c(F)cccc3F)s2)CC1 [Example S119],20
4,Nc1nc(NC2CCN(S(=O)(=O)CCNC3CCCc4ccccc43)CC2)sc1C(=O)c1c(F)cccc1F (stereo not shown) [Example S68],21
5,C#CC(CC)(CC)NCCS(=O)(=O)N1CCC(Nc2nc(N)c(C(=O)c3c(F)cccc3F)s2)CC1 [Example S175],99
6,Nc1nc(NC2CCN(S(=O)(=O)CCNCCc3ccncc3)CC2)sc1C(=O)c1c(F)cccc1F [Example S140],25
7,CC(CO)NCCS(=O)(=O)N1CCC(Nc2nc(N)c(C(=O)c3c(F)cccc3F)s2)CC1 (stereo not shown) [Example S90],7
8,CC(C)(C)CNCCS(=O)(=O)N1CCC(Nc2nc(N)c(C(=O)c3c(F)cccc3F)s2)CC1 [Example S107],98
9,CCC(COC)NCCS(=O)(=O)N1CCC(Nc2nc(N)c(C(=O)c3c(F)cccc3F)s2)CC1 (stereo not shown) [Example S146],42
10,Nc1nc(NC2CCN(S(=O)(=O)CCNCc3cccs3)CC2)sc1C(=O)c1c(F)cccc1F [Example S88],28
11,CC(C)N(CCS(=O)(=O)N1CCC(Nc2nc(N)c(C(=O)c3c(F)cccc3F)s2)CC1)Cc1ccccc1 [Example S44],55
12,Nc1nc(NC2CCN(S(=O)(=O)CCNCC3CC3)CC2)sc1C(=O)c1c(F)cccc1F [Example S139],39
13,CC1CN(CCS(=O)(=O)N2CCC(Nc3nc(N)c(C(=O)c4c(F)cccc4F)s3)CC2)CC(C)O1 (stereo not shown) [Example S16],20
14,Nc1nc(NC2CCN(S(=O)(=O)CCNC3CCCCC3)CC2)sc1C(=O)c1c(F)cccc1F [Example S58],50
15,Nc1nc(NC2CCN(S(=O)(=O)CCN3CCCCC3CO)CC2)sc1C(=O)c1c(F)cccc1F (stereo not shown) [Example S13],24
16,C=C(C)CN(C)CCS(=O)(=O)N1CCC(Nc2nc(N)c(C(=O)c3c(F)cccc3F)s2)CC1 [Example S51],83
17,COc1ccccc1CNCCS(=O)(=O)N1CCC(Nc2nc(N)c(C(=O)c3c(F)cccc3F)s2)CC1 [Example S97],25
18,CN(CCc1ccncc1)CCS(=O)(=O)N1CCC(Nc2nc(N)c(C(=O)c3c(F)cccc3F)s2)CC1 [Example S50],17
19,Nc1nc(NC2CCN(S(=O)(=O)CCN3CCC3)CC2)sc1C(=O)c1c(F)cccc1F [Example S174],10
20,CCN(CC)CCN(CC)CCS(=O)(=O)N1CCC(Nc2nc(N)c(C(=O)c3c(F)cccc3F)s2)CC1 [Example S43],13
21,Nc1nc(NC2CCN(S(=O)(=O)CCNCc3cccc(Cl)c3)CC2)sc1C(=O)c1c(F)cccc1F [Example S142],80
22,Nc1nc(NC2CCN(S(=O)(=O)CCN3CCN(C=O)CC3)CC2)sc1C(=O)c1c(F)cccc1F [Example S17],19
23,Nc1nc(NC2CCN(S(=O)(=O)CCNCCc3ccccc3F)CC2)sc1C(=O)c1c(F)cccc1F [Example S159],44
24,CN(CCO)CCS(=O)(=O)N1CCC(Nc2nc(N)c(C(=O)c3c(F)cccc3F)s2)CC1 [Example S4],25
25,Nc1nc(NC2CCN(S(=O)(=O)CCN[C@@H]3C=CCCC3)CC2)sc1C(=O)c1c(F)cccc1F [Example S170],15
